From patent US9452980B2, “Substituted benzamides” (Hoffmann-La Roche Inc., priority 2009, dated 2016)
Structures can show the parent of a compound that is named as a salt. Where two headings read alike, the source gives them in different places.

Key:
[1] = target: mouse TAAR1 (Mus musculus (Mouse), UniProt Q923Y8); test: Radioligand binding assay on mouse TAAR1
Summary of the method: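 Membranes were from HEK293 cells stably expressing mouse TAAR1. Compounds from 10 pM to 10 μM, in duplicate, competed with [3H]-(S)-4-[(ethyl-phenyl-amino)-methyl]-4,5-dihydro-oxazol-2-ylamine for 1 h at 4 °C. Nonspecific binding was defined with 10 μM unlabelled ligand, and bound radioactivity was read by filtration and scintillation.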

[2] = target: rat TAAR1 (Rattus norvegicus (Rat), UniProt Q923Y9); test: Radioligand binding assay on rat TAAR1
Summary of the method: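 Membranes from HEK293 cells stably expressing rat TAAR1, with Kd checked per batch by saturation. Competition with ³H-(S)-4-[(ethyl-phenyl-amino)-methyl]-4,5-dihydro-oxazol-2-ylamine, compounds 10 pM–10 μM in duplicate, 1 hr at 4 °C. Filtration then scintillation counting; nonspecific binding defined with 10 μM unlabeled ligand.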

[3] = mouse TAAR1, HEK-293 membranes, first value of cell mouse/rat, read-out: Ki (μM) mouse
[4] = rat TAAR1, HEK-293 membranes, second value of cell mouse/rat, read-out: Ki (μM) rat

mouse TAAR1, sequence (Q923Y8 whole entry): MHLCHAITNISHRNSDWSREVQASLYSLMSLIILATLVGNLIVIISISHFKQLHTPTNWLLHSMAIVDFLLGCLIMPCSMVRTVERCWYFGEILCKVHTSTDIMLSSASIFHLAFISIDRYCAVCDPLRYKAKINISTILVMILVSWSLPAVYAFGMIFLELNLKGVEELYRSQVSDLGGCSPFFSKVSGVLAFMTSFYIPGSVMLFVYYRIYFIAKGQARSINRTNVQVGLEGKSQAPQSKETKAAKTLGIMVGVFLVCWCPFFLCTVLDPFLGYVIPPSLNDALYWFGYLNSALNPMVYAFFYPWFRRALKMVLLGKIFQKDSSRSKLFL
rat TAAR1, sequence (Q923Y9 whole entry): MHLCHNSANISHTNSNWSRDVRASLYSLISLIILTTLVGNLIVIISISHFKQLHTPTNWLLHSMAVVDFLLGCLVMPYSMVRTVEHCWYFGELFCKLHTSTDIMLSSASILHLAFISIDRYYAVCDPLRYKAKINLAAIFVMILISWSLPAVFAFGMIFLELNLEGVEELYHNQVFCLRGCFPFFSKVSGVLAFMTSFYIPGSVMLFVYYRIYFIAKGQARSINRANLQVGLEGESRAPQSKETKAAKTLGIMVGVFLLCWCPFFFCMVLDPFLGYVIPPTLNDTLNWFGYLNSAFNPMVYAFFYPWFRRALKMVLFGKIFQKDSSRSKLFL

Row | SMILES | Ki [1, 3] [µM] | Ki [2, 4] [µM] | Ki [1] [µM] | Ki [2] [µM] | Ki ([1]; read-out: Ki (μM) mouse) [µM]
1 | O=C(Nc1ccc(C2CCNC2)cc1)OCCc1ccc(C(F)(F)F)cc1 (racemic) [Example 122, (RS)-(4-Pyrrolidin-3-yl-phenyl)-carbamic acid 2-(4-trifluoromethyl-phenyl)-ethyl ester] | 0.0003 | 0.0011 |  |  | 
2 | O=C(Nc1ccc(C2CCNC2)cc1)OCCc1cccc(C(F)(F)F)c1 (racemic) [Example 123, (RS)-(4-Pyrrolidin-3-yl-phenyl)-carbamic acid 2-(3-trifluoromethyl-phenyl)-ethyl ester] | 0.0014 | 0.0022 |  |  | 
3 | O=C(Nc1ccc(C2CCNC2)cc1)OCCc1cc(F)ccc1F (racemic) [Example 124, (RS)-(4-Pyrrolidin-3-yl-phenyl)-carbamic acid 2-(2,5-difluoro-phenyl)-ethyl ester] | 0.0013 | 0.0036 |  |  | 
4 | O=C(Nc1ccc(C2CCNC2)cc1)OCCc1ccc(Cl)c(Cl)c1 (racemic) [Example 126, (RS)-(4-Pyrrolidin-3-yl-phenyl)-carbamic acid 2-(3,4-dichloro-phenyl)-ethyl ester] | 0.0019 | 0.0022 |  |  | 
5 | CC(OC(=O)Nc1ccc(C2CCNC2)cc1)c1ccc(Cl)cc1 (racemic) [Example 127, (RS)-(4-Pyrrolidin-3-yl-phenyl)-carbamic acid (RS)-1-(4-chloro-phenyl)-ethyl ester] | 0.0006 | 0.002 |  |  | 
6 | O=C(Nc1ccc(C2CCNC2)cc1)OCCCc1ccc(Cl)cc1 (racemic) [Example 128, (RS)-(4-Pyrrolidin-3-yl-phenyl)-carbamic acid 3-(4-chloro-phenyl)-propyl ester] | 0.0003 | 0.0003 |  |  | 
7 | O=C(Nc1ccc(C2CCNC2)cc1)OC(c1ccc(Cl)cc1)C(F)(F)F (racemic) [Example 130, (RS)-(4-Pyrrolidin-3-yl-phenyl)-carbamic acid (RS)-1-(4-chloro-phenyl)-2,2,2-trifluoro-ethyl ester] | 0.0017 | 0.0169 |  |  | 
8 | O=C(Nc1ccc(CCC2CCNC2)cc1)c1ncccc1F (racemic) [Example 132, (RS)-3-Fluoro-pyridine-2-carboxylic acid [4-(2-pyrrolidin-3-yl-ethyl)-phenyl]-amide hydrochloride] | 9.99 | 0.141 |  |  | 
9 | O=C(Nc1ccc(CCC2CCNC2)cc1)c1ncc(F)cc1F (racemic) [Example 133, (RS)-3,5-Difluoro-pyridine-2-carboxylic acid [4-(2-pyrrolidin-3-yl-ethyl)-phenyl]-amide hydrochloride] | 1.52 | 0.0174 |  |  | 
10 | O=C(Nc1ccc(CCC2CCCNC2)cc1)c1ncccc1F (racemic) [Example 134, (RS)-3-Fluoro-pyridine-2-carboxylic acid [4-(2-piperidin-3-yl-ethyl)-phenyl]-amide hydrochloride] | 2.06 | 0.106 |  |  | 
11 | O=C(Nc1ccc(CCC2CCCNC2)cc1)c1ncc(F)cc1F (racemic) [Example 135, (RS)-3,5-Difluoro-pyridine-2-carboxylic acid [4-(2-piperidin-3-yl-ethyl)-phenyl]-amide hydrochloride] | 1.27 | 0.0134 |  |  | 
12 | O=C(Nc1ccc(C(=O)C2CCNC2)cc1)c1ccc(Cl)cc1 (racemic) [Example 136, (RS)-4-Chloro-N-[4-(pyrrolidine-3-carbonyl)-phenyl]-benzamide hydrochloride] |  |  | 0.153 | 0.0008 | 
13 | CCCc1ccc(C(=O)Nc2ccc(C3CCCNC3)cc2)cc1 (racemic) [Example 137, (RS)—N-(4-Piperidin-3-yl-phenyl)-4-propyl-benzamide hydrochloride] | 0.0062 | 0.0015 |  |  | 
14 | O=C(Nc1ccc(C2CCCNC2)cc1)c1ccc(C(F)(F)F)cn1 (racemic) [Example 138, (RS)-5-Trifluoromethyl-pyridine-2-carboxylic acid (4-piperidin-3-yl-phenyl)-amide hydrochloride] | 0.035 | 0.0059 |  |  | 
15 | O=C(Nc1ccc(C2CCNC2)cc1)c1ccc(C(F)(F)F)cn1 (racemic) [Example 139, (RS)-5-Trifluoromethyl-pyridine-2-carboxylic acid (4-pyrrolidin-3-yl-phenyl)-amide hydrochloride] | 0.0158 | 0.0051 |  |  | 
16 | O=C(Nc1ccc(C2CCNC2)nc1)c1ccc(Cl)cc1 (racemic) [Example 140, (RS)-4-Chloro-N-(6-pyrrolidin-3-yl-pyridin-3-yl)-benzamide] | 0.245 | 0.0358 |  |  | 
17 | O=C(Nc1ccc(C2CNCCO2)cc1)c1ccc(C(F)(F)F)cn1 (racemic) [Example 141, (RS)-5-Trifluoromethyl-pyridine-2-carboxylic acid (4-morpholin-2-yl-phenyl)-amide hydrochloride] | 0.0201 | 0.0024 |  |  | 
18 | O=C(Nc1ccc(CCC2CCCN2)cc1)c1ccc(Cl)cc1 (racemic) [Example 142, (RS)-4-Chloro-N-[4-(2-pyrrolidin-2-yl-ethyl)-phenyl]-benzamide hydrochloride] | 0.0126 | 0.0004 |  |  | 

Row | SMILES | Ki [1, 3] [µM] | Ki [2, 4] [µM] | Ki [1] [µM] | Ki [2] [µM] | Ki ([1]; read-out: Ki (μM) mouse) [µM]
19 | O=C(Nc1ccc(C2CNCCO2)cc1)c1ccc(Cl)cc1F (racemic) [Example 146, (RS)-4-Chloro-2-fluoro-N-(4-morpholin-2-yl-phenyl)-benzamide hydrochloride] |  | 0.001 |  |  | 0.0268
20 | O=C(Nc1ccc(CC2CCNC2)cc1)c1ccc(Cl)cc1 (racemic) [Example 149, (RS)-4-Chloro-N-(4-pyrrolidin-3-ylmethyl-phenyl)-benzamide hydrochloride] | 0.0011 | 0.001 |  |  | 
21 | O=C(Nc1ccc(CCC2CCCN2)cc1)c1ccc(Cl)c(Cl)c1 (racemic) [Example 154, (RS)-3,4-Dichloro-N-[4-(2-pyrrolidin-2-yl-ethyl)-phenyl]-benzamide hydrochloride] | 0.0082 | 0.0002 |  |  | 
22 | O=C(Nc1ccc(CCC2CCCN2)cc1)c1ccc(C(F)(F)F)cc1 (racemic) [Example 155, (RS)—N-[4-(2-Pyrrolidin-2-yl-ethyl)-phenyl]-4-trifluoromethyl-benzamide hydrochloride] | 0.0107 | 0.0009 |  |  | 
23 | O=C(Nc1ccc(CCC2CCCN2)cc1)c1ccc(F)cc1 (racemic) [Example 156, (RS)-4-Fluoro-N-[4-(2-pyrrolidin-2-yl-ethyl)-phenyl]-benzamide hydrochloride] | 0.153 | 0.002 |  |  | 
24 | O=C(Nc1ccc(CCC2CCCN2)cc1)c1cccc(Cl)c1 (racemic) [Example 157, (RS)-3-Chloro-N-[4-(2-pyrrolidin-2-yl-ethyl)-phenyl]-benzamide] | 0.142 | 0.0007 |  |  | 
25 | CCOc1ccc(C(=O)Nc2ccc(CCC3CCCN3)cc2)cc1 (racemic) [Example 158, (RS)-4-Ethoxy-N-[4-(2-pyrrolidin-2-yl-ethyl)-phenyl]-benzamide hydrochloride] | 0.0326 | 0.0014 |  |  | 
26 | O=C(Nc1ccc(C2CCCCN2)cc1)c1ccc(Cl)cc1 (racemic) [Example 159, (RS)-4-Chloro-N-(4-piperidin-2-yl-phenyl)-benzamide hydrochloride] | 6.38 | 0.63 |  |  | 
27 | O=C(Nc1ccc(C2CCCNC2)cc1)c1cnc(Cl)cn1 (racemic) [Example 160, (RS)-5-Chloro-pyrazine-2-carboxylic acid (4-piperidin-3-yl-phenyl)-amide hydrochloride] | 0.0851 | 0.0046 |  |  | 
28 | O=C(Nc1ccc(C2CCNC2)cc1)c1cnc(Cl)cn1 (racemic) [Example 163, (RS)-5-Chloro-N-(4-(pyrrolidin-3-yl)phenyl)pyrazine-2-carboxamide hydrochloride] | 0.0573 | 0.0121 |  |  | 
29 | O=C(Nc1ccc(CCC2CCCN2)cc1)c1cnc(Cl)cn1 (racemic) [Example 164, (RS)-5-Chloro-N-(4-(2-(pyrrolidin-2-yl)ethyl)phenyl)pyrazine-2-carboxamide hydrochloride] | 0.0871 | 0.0121 |  |  | 
30 | N#Cc1ccc(C(=O)Nc2ccc(C3CCNC3)cc2)nc1 (racemic) [Example 165, (RS)-5-Cyano-N-(4-(pyrrolidin-3-yl)phenyl)picolinamide hydrochloride] | 0.126 | 0.0411 |  |  | 
31 | O=C(Nc1ccc(CCC2CCCN2)cc1)c1ccc(F)cn1 (racemic) [Example 166, (RS)-5-Fluoro-N-(4-(2-(pyrrolidin-2-yl)ethyl)phenyl)picolinamide hydrochloride] | 0.394 | 0.0212 |  |  | 
32 | O=C(Nc1ccc(CCC2CCCCN2)cc1)c1ccc(Cl)cc1 (racemic) [Example 169, (RS)-4-Chloro-N-(4-(2-(piperidin-2-yl)ethyl)phenyl)benzamide hydrochloride] | 0.0607 | 0.0027 |  |  | 
33 | O=C(Nc1ccc(CCC2CCCCN2)cc1)c1ccc(F)cc1 (racemic) [Example 170, (RS)-4-Fluoro-N-(4-(2-(piperidin-2-yl)ethyl)phenyl)benzamide hydrochloride] | 0.234 | 0.0158 |  |  | 
34 | O=C(Nc1ccc(CCC2CCCCN2)cc1)c1ccc(Cl)cn1 (racemic) [Example 171, (RS)-5-Chloro-N-(4-(2-(piperidin-2-yl)ethyl)phenyl)picolinamide hydrochloride] | 0.198 | 0.0101 |  |  | 
35 | CCOc1ccc(C(=O)Nc2ccc(CCC3CCCN3)cc2)nc1 (racemic) [Example 172, (RS)-5-Ethoxy-N-(4-(2-(pyrrolidin-2-yl)ethyl)phenyl)picolinamide hydrochloride] | 0.113 | 0.0077 |  |  | 
36 | O=C(Nc1ccc(CCC2CCCCN2)cc1)c1ccc(Cl)nc1 (racemic) [Example 173, (RS)-6-Chloro-N-(4-(2-(piperidin-2-yl)ethyl)phenyl)nicotinamide hydrochloride] | 0.824 | 0.0218 |  |  | 
